Patent US20110183904A1, “METHODS AND COMPOSITIONS FOR ALTERING BEHAVIOR ASSOCIATED WITH AUTISM SPECTRUM DISORDER” (The Children's Mercy Hospital, priority 2008, published 2011)
Several values for one entry are separate records, joined by “and”; a condition that tells them apart may be missing. Equal values may be shown once. Entries after “also recorded” stand apart in the source; their conditions may differ.

Columns and labels:
Gαs in PBMCs = conditions: bipolar illness and schizophrenia; cited from earlier work
Gαs mRNA in PBMCs = Gαs mRNA in PBMCs exposed to vasopressin (real-time RT-PCR); assay type: cell-based, human
Experimental: (§1) Samples were taken from the patients, as described in Example 1, and mRNA was isolated from cells exposed to vasopressin and analyzed for amount of mRNA expressing Gαs and Gαq.
(§2) Venipuncture. 3 ml/kg of blood (to a maximum of 40 cc) were drawn after a 2 hour fast between 10 am and 12 am as previously described (Modahl). EMLA (topical lidocaine cream) was placed on the antecubital region of both arms and covered with tegaderm prior to blood draw. 10 ml of blood was collected in heparinized tubes on ice until processing within 15 minutes. This aliquot was centrifuged at 4° C. at 3000 g for 20 minutes, after which the plasma was stored in 1 ml aliquots at −80° C. until further processing, at which time it was transported on dry ice to the laboratory. The remaining blood (up to 30 cc) was placed on ice and transported within 30 minutes of blood draw to the same lab. PBMC isolation, hormone treatment and cell culture. PBMCs were isolated from heparinized blood using Histopaque 1077 (Sigma-Aldrich, St. Louis, Mo.). Briefly, 5 ml of blood was diluted 1:1 in PBS and carefully layered onto 3 ml of Histopaque 1077 in a 50 ml conical centrifuge tube. Tubes were centrifuged at 400 g for 30 min at RT. The buffy coat was removed from the tube and washed three times in complete RPMI without phenol red. Cell counts and viability were determined using Trypan blue. Cell viability was >95%. Resultant PBMC's were suspended in complete RPMI with 10% charcoal stripped, dilapidated fetal calf serum (FCS) (Invitrogen, Carlsbad, Calif.) and added in 1 ml aliquots to 12 well plate with vehicle and vasopressin (10−8M) in RPMI+10% charcoal stripped, dilapidated FCS. Cells were incubated overnight (18-24 hr) before wells were harvested and rinsed. Cell suspensions were centrifuged at 500 g for 10 min at RT, and supernatant was aspirated. Buffer RLT Plus from the RNeasy Mini Plus Kit (QIAgen, Valencia, Calif.) was added to the cell pellets before vortexing to lyse cells. Samples were stored at −80° C. before RNA purification and isolation.
(§3) RNA isolation and quantitation. Samples were thawed, vortexed, and placed in QIAshredder columns. Columns were centrifuged for 2 min at 15000 g. The homogenized lysate was transferred to a gDNA Eliminator spin column and centrifuged for 30 sec at 9000 g. Equal volumes of 70% ethanol were added to the eluent. The mixture was transferred to RNeasy spin columns and centrifuged for 15 sec at 9000 g. Columns were washed with Buffer RW1 and the Buffer RPE, centrifuging for 15 sec at 9000 g, each time discarding the eluent. Buffer RPE was again added and columns centrifuged for 2 min at 9000 g to dry the column. Columns were then centrifuged for 1 min at 15000 g. RNA was eluted with the addition of Nuclease-free water and spun for 1 min at 9000 g. RNA was examined by spectrophotometry and quantitated using the Ribogreen assay (Invitrogen, Carlsbad, Calif.). Samples were diluted 1:200. Standards of 0, 20, 100, 500, and 1000 ng/ml were made from E. coli ribosomal RNA in TE buffer. Ribogreen reagent (1:200) was added to samples and standards, and samples were read on a Bio-Tek FLx800 fluorescent plate reader. RNA was diluted in nuclease-free water to a final concentration of 150 ng/ml cDNA.
(§4) cDNA construction and one-step real-time RT-PCR. Reverse transcription was performed using the SuperScript II Reverse Transcription Kit (Invitrogen, Carlsbad, Calif.). […]

Gαq mRNA in PBMCs = Gαq mRNA in PBMCs exposed to vasopressin (real-time RT-PCR); assay type: cell-based, human
Experimental: as §1, §2, §3, §4

Gαs protein in PBMCs = test: Gαs protein expression in PBMCs exposed to vasopressin (immunoblot); assay type: cell-based, human
Experimental: (§5) Membrane preparation for membrane-associated proteins. For protein studies, PBMC's were manipulated at 4° C., as previously described in Example 4. PBMC's were individually homogenized (1:30, wt/vol) in ice-cold 0.25 M sucrose and 50 mM Tris-HCL, (pH 7.6) in a Dounce homogenizer, centrifuged twice at 800×g for 5 min before centrifugation of the supernatants at 30,000×g for 60 min. The pellet was resuspended in assay buffer and used directly in the binding assay. Protein concentration was determined by BCA protein assay kit (Pierce, Rockford, Ill.) using bovine serum albumin (BSA) as a standard.
(§6) Immunoblot analysis for membrane-associated proteins. Total membrane proteins were prepared as for receptor assays above. Samples were electrophoresed in 12% Tris-HCl resolving gels and transferred to 0.45 μm nitrocellulose membranes (Bio-Rad, Hercules, Calif.) by electroblotting. […] After three washes in TBST, membranes were incubated for 1 h in TBST and 1% non fat dry milk with horseradish peroxidase conjugated 2° antibodies (Jackson Immunoresearch, West Grove, Pa.). Bands were visualized by exposure of the membranes to autoradiographic film (MidSci, St. Louis, Mo.). The membranes were then stripped with Restore™ Western Blot Stripping Buffer (Pierce, Rockford Ill.) for 30 min at 37° C. and reprobed for actin protein as an internal control. The bands were quantified using a densitometer (GE Healthcare, Piscataway, N.J.).
(§7) Specific G protein antibodies. Specific Gαs and Gαq/11 antibodies made in rabbit without cross reactivity to other G proteins were used at a 1:500 dilution and originated from Santa Cruz Biotechnology (Santa Cruz, Calif.).

Gαq protein in PBMCs = test: Gαq protein expression in PBMCs exposed to vasopressin (immunoblot); assay type: cell-based, human; design: Gαq protein expression, Control Vasopressin / Gαq protein expression, Average, Control Vasopressin: scale not given here
Experimental: as §5, §6, §7

[1] = PBMCs of individual children with ASD, vasopressin 10−8M, 18-24 hr
[2] = PBMCs of individual control children, vasopressin 10−8M, 18-24 hr
[3] = average of autism group, vasopressin 10−8M
[4] = average of control group, vasopressin 10−8M
[5] = ASD versus without ASD, both exposed to vasopressin
[6] = PBMCs of individual children with ASD, immunoblot densitometry
[7] = PBMCs of individual control children, immunoblot densitometry

For O=C(CCCN1CCC(O)(c2ccc(Cl)cc2)CC1)c1ccc(F)cc1 [haldol], the “Gαs levels in PBMCs under treatment” value (Gαs in PBMCs) is given as “decrease”.
With NC(=O)CC[C@@H]1NC(=O)[C@H](Cc2ccccc2)NC(=O)[C@H](Cc2ccc(O)cc2)NC(=O)[C@@H](N)CSSC[C@@H](C(=O)N2CCC[C@H]2C(=O)N[C@@H](CCCN=C(N)N)C(=O)NCC(N)=O)NC(=O)[C@H](CC(N)=O)NC1=O [Vasopressin, Arginine vasopressin] the “Gαs mRNA (% of control), Autism Vasopressin” value (Gαs mRNA in PBMCs; [1]) was 59.5 % of control and 151.6 % of control and 373.2 % of control and 65.9 % of control and 181.8 % of control and 66.3 % of control and 52.6 % of control and 77 % of control and 62 % of control and 54 % of control and 21.1 % of control and 114.8 % of control and 144.4 % of control and 67.6 % of control and 99.7 % of control and 147.3 % of control and 78.5 % of control and 43.7 % of control and 214.4 % of control, the “Gαs mRNA (% of control), Control Vasopressin” value (Gαs mRNA in PBMCs; [2]) was 200 % of control and 245.8 % of control and 137.6 % of control and 66.3 % of control and 42.7 % of control and 58.3 % of control and 120 % of control and 31.9 % of control and 33.1 % of control and 66.1 % of control and 30.8 % of control and the “Gαs mRNA (% of control), Average, Autism Vasopressin” value (Gαs mRNA in PBMCs; [3]) was 109.1 % of control. The “Gαs mRNA (% of control), Average, Control Vasopressin” value (Gαs mRNA in PBMCs; [4]) was 93.9 % of control, the “change of Gαs mRNA on vasopressin exposure” value (Gαs mRNA in PBMCs; healthy patients) was “increased” and the “Gαq mRNA (% of control), Autism Vasopressin” value (Gαq mRNA in PBMCs; [1]) was 7.45 % of control and 48.7 % of control and 96.6 % of control (2×) and 171.8 % of control and 43.6 % of control and 37.48 % of control and 13.87 % of control and 12.07 % of control and 24.1 % of control and 7.99 % of control and 48.3 % of control and 90.1 % of control and 90.18 % of control and 107.8 % of control and 8.62 % of control and 1.94 % of control and 30.78 % of control. The “Gαq mRNA (% of control), Control Vasopressin” value (Gαq mRNA in PBMCs; [2]) was 9.17 % of control and 3.36 % of control and 54.5 % of control and 23.7 % of control and 1.04 % of control and 12.94 % of control and 1.11 % of control and 100.5 % of control and 59.8 % of control and 146.7 % of control and 45.1 % of control and 16.42 % of control and 24.87 % of control and 26.4 % of control, the “Gαq mRNA (% of control), Average, Autism Vasopressin” value (Gαq mRNA in PBMCs; [3]) was 52.11 % of control and the “Gαq mRNA (% of control), Average, Control Vasopressin” value (Gαq mRNA in PBMCs; [4]) was 37.5 % of control. For the same compound, the “change of Gαq mRNA on vasopressin exposure” value (Gαq mRNA in PBMCs; healthy patients) was “increased”, the “Gαs protein expression after vasopressin exposure, patients with ASD lower than patients without ASD” value (Gαs protein in PBMCs; [5]) was “about 37%” and the “Gαs protein expression, Autism Vasopressin” value (Gαs protein in PBMCs; [6]) was 0.16 and 0.03 (2×) and 0.04 and 0.01 and 0.14 and 0 and 0.33 (2×) and 0.69 and 0.83 and 0.86 and 0.52 and 0.7. The “Gαs protein expression, Control Vasopressin” value (Gαs protein in PBMCs; [7]) was 0.3 and 0.83 and 0.35 and 1.63 and 0.33 and 0.19 and 0.48 and 0.29 and 1.26 and 0.51 and 0.62 and 0.67, the “Gαs protein expression, Average, Autism Vasopressin” value (Gαs protein in PBMCs; average of autism group) was “.33” and the “Gαs protein expression, Average, Control Vasopressin” value (Gαs protein in PBMCs; average of control group) was “.54”. For the same compound, the “change of Gαs protein expression on vasopressin exposure” value (Gαs protein in PBMCs; patients with ASD) was “down-regulation trend; also recorded: decreased”, the “change of Gαs protein expression on vasopressin exposure” value (Gαs protein in PBMCs; patients without ASD) was “appeared to be higher; also recorded: up-regulating” and the “Gαq protein expression after vasopressin exposure, patients with ASD less than patients without ASD” value (Gαq protein in PBMCs; [5]) was “about 28%”. The “Gαq protein expression, Autism Vasopressin” value (Gαq protein in PBMCs; [6]) was 4.17 and 12.58 and 0 (5×) and 9.53 and 0.36 and 1.26 and 4.64 and 4.01 and 0.19 and 1.13, the “Gαq protein expression, Control Vasopressin” value (Gαq protein in PBMCs; [7]) was 7.84 and 0.25 and 0.6 and 0 and 10.56 and 0.26 and 1.86 and 3.96 and 0.35 and 2.86 and 2.81 and 13.29 and the “Gαq protein expression, Average, Autism Vasopressin” value (Gαq protein in PBMCs; average of autism group) was 2.71. For the same compound, the “Gαq protein expression, Average, Control Vasopressin” value (Gαq protein in PBMCs; average of control group) was 3.72, the “change of Gαq protein expression on vasopressin exposure” value (Gαq protein in PBMCs; patients with ASD) was “down-regulation trend; also recorded: decreased” and the “change of Gαq protein expression on vasopressin exposure” value (Gαq protein in PBMCs; patients without ASD) was “appeared to be higher; also recorded: up-regulating”.
